Reference: ChEMBL document CHEMBL1157539, “Thousands of chemical starting points for antimalarial lead identification” (Nature, 2010)

These compounds were tested on Plasmodium falciparum (assay: GSK_TCMDC: Inhibition of Plasmodium falciparum 3D7 in whole erythrocytes, using parasite LDH activity as an index of growth.). Conditions: Plasmodium falciparum, 3D7.
Assay type: functional, organism-based

| SMILES | XC50 |
| --- | --- |
| O=C(Cn1c(CCc2cccc(F)c2F)nc(=O)c2ccccc21)N(Cc1ccc(-c2ccc(C(F)(F)F)cc2)cc1)C1CCN(C2=NCCS2)CC1 | 1330 nM |
| Cc1ccc(OCC2CCN(c3ncc(C(=O)NC4CC4)cc3Cl)CC2)cc1 | 1090 nM |
| Cc1cc2c(NC(=O)NC3CCN(Cc4ccc(Cl)c(Cl)c4)CC3)cccc2cn1 | 681 nM |
| CCOc1c(CNCCCNc2nc3ccccc3[nH]2)cc(I)cc1OC | 663 nM |
| CCN1CCc2nc3ccccc3c(C(=O)Nc3ccc(C#N)cc3)c2C1 | 780 nM |
| O=C(Nc1ccc(Cl)c(C(F)(F)F)c1)N[C@H]1CCN(CCCCCNC(=O)C2CC2c2ccc(Cl)c(Cl)c2)C1 (stereo partly specified) | 1080 nM |
| O=C(Nc1cccc(C(F)(F)F)c1)c1cccc(S(=O)(=O)NCC2CCN(CC3CCCCC3)CC2)c1 | 1470 nM |
| CN1CCc2cc(CN3CC4(C)CC3CC(C)(C)C4)c(O)cc2C(c2ccccc2)C1 (stereo unspecified) | 720 nM |
| COc1cc(C(=O)Nc2ccc(-c3nc4ccccc4[nH]3)cc2)cc(OC)c1OC | 982 nM |
| Cc1cc(NC(=O)Nc2cccc(Cl)c2Cl)c2ccccc2n1 | 744 nM |
| O=C(n1c(-c2cc3ccccc3n2C(=O)C(F)(F)F)cc2ccccc21)C(F)(F)F | 878 nM |
| O=C(Cn1c(SCc2cccc(F)c2F)cc(=O)c2ccccc21)N(CCc1c[nH]cn1)Cc1ccc(-c2ccc(C(F)(F)F)cc2)cc1 | 801 nM |
| Cc1[nH]c(C)c(-c2ccc(OCCSc3ccncc3)cc2)c(=O)c1Br | 393 nM |
| O=C(NCCc1ccccc1)N(Cc1cccc(-c2ccc(CNCc3ccc4c(c3)OCO4)cc2)c1)C1CCN(Cc2ccccc2)CC1 | 661 nM |
| Cc1cccc2nc(-c3ccc(-c4cccc(CNCC5CCCO5)c4)s3)[nH]c12 (stereo unspecified) | 972 nM |
| O=C(NC1CCN(CCN2CCC(c3ccccc3C(F)(F)F)CC2)CC1)c1ccc(-c2ccc(Cl)cc2)cc1 | 714 nM |
| CCc1c[nH]c2c(N3CCCCS3(=O)=O)cc(C(=O)N[C@@H](Cc3ccccc3)[C@H](O)CNCc3cccc(OC)c3)cc12 | 909 nM |
| COc1cc2nc(Nc3ccc4c(c3)OCCO4)nc(N)c2cc1OC | 469 nM |
| Cc1ccc(NC(=O)Nc2ccccc2F)cc1-c1ccc(C(=O)Nc2ccncc2)cc1 | 563 nM |
| CCOC(=O)c1cnc2c(OC)cc(OC)c(Cl)c2c1Nc1ccccc1 | 871 nM |
| CCNc1cc(C(=O)N[C@@H](Cc2ccccc2)[C@H](O)CNC2(CC)CCCCC2)cc(N2CCCCS2(=O)=O)c1 | 265 nM |
| Nc1nc2c(c(=O)[nH]1)CN(S(=O)(=O)c1ccc(C(=O)N[C@@H](CCC(=O)O)C(=O)O)cc1)CC2 | 146 nM |
| CC(Cc1ccc(OCc2ccc(CCN(C)C)cc2)cc1)NCCc1cccc(Cl)c1 (stereo unspecified) | 769 nM |
| CN1CCC(C(=O)N(Cc2ccc(-c3ccc(CNCCc4ccccc4)cn3)cc2)C2CCN(Cc3ccccc3)CC2)CC1 | 787 nM |

| SMILES | XC50 |
| --- | --- |
| Nc1c2c(nc3cc(NC(=O)c4ccc([N+](=O)[O-])cc4)ccc13)CCCC2 | 475 nM |
| Cc1nc2nc(N)nc(N)c2c(C)c1Cc1ccc([N+](=O)[O-])cc1 | 438 nM |
| CCCCCCCCc1c(C)nc(C)c(C#N)c1O | 402 nM |
| Cc1cccc2nc(-c3ccc(-c4cccc(NC(=O)NCc5ccccc5)c4)cc3)[nH]c12 | 777 nM |
| CCc1ccc(CN(CCCOc2cccc(CC(=O)NCc3c[nH]cn3)c2)Cc2ccc(-n3ccnc3)cc2)cc1 | 979 nM |
| CN1CCCN(Cc2ccc(-c3ccc(NC(=O)c4ccc(C#N)cc4)cc3)cc2)CC1 | 1020 nM |
| Cc1cc(NCCc2ccccc2)nc(NC(=N)Nc2ccc(Cl)cc2)n1 | 232 nM |
| COc1ccc2ncc(F)c([C@H](O)CN3CCC(NCc4ccc5c(c4)OCCO5)CC3)c2c1 | 152 nM |
| O=C(Nc1ccc(OC2CCN(Cc3ccc(F)cc3)CC2)c(Cl)c1)c1cccs1 | 318 nM |
| COc1ccc(-c2ccc(NC(=O)c3ccc(Cl)cc3)cc2)cc1CN1CCCN(C)CC1 | 648 nM |
| O=C(Nc1cccc(N2CCC(NCc3cccnc3)CC2)c1)c1cccc(C(F)(F)F)c1 | 970 nM |
| O=C(NC1CCN(c2ccnc3cc(Cl)ccc23)C1)c1ccc(C(F)(F)F)cc1 (stereo unspecified) | 143 nM |
| CN(C)CCCn1cncc1-c1ccc2ncnc(Nc3ccc(OCc4ccccc4)cc3)c2c1 | 524 nM |
| CCn1ncc(Cl)c1CN(C)S(=O)(=O)c1ccc(Br)cc1 | 1020 nM |
| Nc1c2c(nc3ccc(NC(=O)CCCCCc4ccccc4)cc13)CCCC2 | 438 nM |
| N=C(N)NN=CC(=O)Nc1ccc(Br)cc1 | 884 nM |
| CCN(CC)CCOc1ccc(C(O)(C#CC(O)(c2ccc(OCCN(CC)CC)cc2)c2ccc([N+](=O)[O-])cc2)c2ccc([N+](=O)[O-])cc2)cc1 (stereo unspecified) | 1730 nM |
| O=C(c1cc(-c2ccccc2O)on1)N1CCN(C(c2ccccc2)c2ccccc2)CC1 | 335 nM |
| COC(=O)c1ccc(CC(C)NCC(O)c2cc(Cl)c(N)c(Cl)c2)cc1 (stereo unspecified) | 877 nM |
| Cc1ccoc1C(=O)Nc1ccc(-c2cccc(-c3nc4cccc(C)c4[nH]3)c2)cc1 | 726 nM |
| Oc1ccc2ncnc(Nc3ccc(OCc4cccc(F)c4)c(Cl)c3)c2c1 | 993 nM |
| Cc1cc(N[C@@H](Cc2ccccc2)C(=O)Nc2ccccc2)nc(NCCc2ccccc2)n1 | 871 nM |
| COc1c(C2CCN(CCCCNC(=O)c3ccc(-c4ccc(Cl)cc4)c(O)c3)CC2)ccc2c1CCCC2 | 226 nM |
| c1cc(CNCCc2ccncc2)cc(-c2cccc(-c3nc4ccccc4[nH]3)c2)c1 | 146 nM |

| SMILES | XC50 |
| --- | --- |
| O=C(NCc1ccc(Cl)c(Cl)c1)c1ccc(C2CCCN(Cc3ccc4[nH]cnc4c3)C2)cc1 (stereo unspecified) | 776 nM |
| CCCCCCCCCc1c(C)[nH]c2ccccc2c1=O | 163 nM |
| Oc1c(C(Nc2nc3ccccc3s2)c2ccccc2)ccc2cccnc12 (stereo unspecified) | 646 nM |
| N=C(N)c1ccc(NC(=O)c2cc(Sc3ccc(O)c(C(=O)Nc4ccc(C(=N)N)cc4)c3)ccc2O)cc1 | 122 nM |
| COc1ccc(NC(=O)/C=C/c2ccccc2Cl)cc1OCCN1CCC(NC2CC2)CC1 | 842 nM |
| COc1ccc2nccc([C@@H](O)CN3CCC(NCc4cc5c(cc4F)SCC(=O)N5)CC3)c2n1 | 1000 nM |
| CCOc1ccc2c(=NN=Cc3cc(OC)c(OC)c(OC)c3)cc(C)[nH]c2c1 | 613 nM |
| O=C(N[C@@H](Cc1ccccc1)[C@H](O)CNC1CCOCC1)c1cc(C2CCCC2)cc(N2CCCCS2(=O)=O)c1 | 202 nM |
| O=S(=O)(NCCN1CCCC1)c1ccc(-c2ccc(CNCc3ccsc3)cc2)s1 | 832 nM |
| COc1cccc(C(=O)NCCOc2ccccc2)c1Oc1ccccc1 | 918 nM |
| CN(c1ccc(NC(=O)Nc2cc(C(F)(F)F)ccc2F)cc1)c1ccnc(NCCN2CCOCC2)n1 | 512 nM |
| COc1ccccc1CN1CCC(NC(=O)c2ccc(-c3ccc(N(C)C)cc3)s2)CC1 | 958 nM |
| O=C(/C=C/c1ccc(Cl)c(Cl)c1)NCCCCCN1CCC(NC(=O)Nc2ccc(Cl)cc2Cl)CC1 | 640 nM |
| N#Cc1cccc(C(=O)Nc2ccc(-c3nc4ccccc4[nH]3)cc2)c1 | 541 nM |
| CCCCCCN1CCC(NCc2ccc(CN(C)C)cc2)CC1 | 1270 nM |
| Oc1ccc(Cl)cc1CN1CCC(CCOC(c2ccccc2)c2ccc(Cl)cc2)CC1 (stereo unspecified) | 390 nM |
| Cc1cc(Nc2cccc(C(F)(F)F)c2)nc(NCc2ccccc2)n1 | 148 nM |
| Nc1nc2c(ncn2COC2COP(=O)(O)OC2)c(=O)[nH]1 (stereo unspecified) | 454 nM |
| N#Cc1cncc(-c2nc3c(N4CCC(Cc5ccccc5)CC4)cccc3n2C2CCNC2)c1 (stereo unspecified) | 987 nM |
| O=C(c1cc(C(F)(F)F)cc(C(F)(F)F)c1)N1CCC(CCN2CCC3(CC2)C(=O)NCN3c2ccccc2)CC1Cc1ccc(Cl)c(Cl)c1 (stereo unspecified) | 656 nM |
| COc1cccc(OC)c1CN1CCC(N(C)CCCCCCCCCN2CCC(OC(=O)Nc3ccccc3-c3ccccc3)CC2)CC1 | 319 nM |
| COc1ccc(CN2CCC(NCc3cccc(C(F)(F)F)c3)CC2)cc1 | 753 nM |
| Cc1sc2nc(CSc3ccccc3)nc(N3CCN(CC(=O)NC4CC4)CC3)c2c1C | 462 nM |
| O=c1cc(NCCCNCc2cccc(C(F)(F)F)c2Cl)[nH]c2ccccc12 | 804 nM |

| SMILES | XC50 |
| --- | --- |
| Cc1nc2nc(N)nc(N)c2c(C)c1Cc1cccc(F)c1 | 341 nM |
| CCC[C@@H]([C@@H](CC1CCCCC1)C(=O)N[C@H](C(=O)Nc1ccccn1)[C@H](C)CC)N(O)C=O | 533 nM |
| Cc1cccc2nc(-c3cccc(-c4cccc(CNCc5ccc(S(C)(=O)=O)cc5)c4)c3)[nH]c12 | 299 nM |
| O=C(N/C=N/c1cc([N+](=O)[O-])c(-c2ccncc2)n1-c1ccccc1)c1cccc(O)c1 | 331 nM |
| FC(F)(F)COc1c(CCNCCCCNCCc2ccc3ccccc3c2OCC(F)(F)F)ccc2ccccc12 | 348 nM |
| CCOC(=O)c1ccc(-c2c(C(F)(F)F)noc2-c2cc(CC)c(OC)cc2O)o1 | 206 nM |
| CON=C1CCC(Cn2ccnc2)(c2ccc(Cl)cc2Cl)CC1 (stereo unspecified) | 875 nM |
| COc1ccc(NC(=O)c2ccc(-c3nc(-c4ccccc4)cs3)cc2)cc1N1CCN(C)CC1 | 992 nM |
| Nc1ncc(-c2ccc(Cl)c(Cl)c2)c(N)n1 | 727 nM |
| c1ccc2c(c1)CN(CC1CCOCC1)CC1(CCN(Cc3c[nH]c4cnccc34)CC1)O2 | 1550 nM |
| COc1ccc(-c2cc(C(=O)N[C@@H](Cc3ccccc3)C(=O)NCCN3CCCCC3)ccc2O)cc1 | 792 nM |
| CCCCOc1ccc(-n2c(Nc3ccccc3)nc3cc(S(N)(=O)=O)ccc32)cc1 | 887 nM |
| O=S(=O)(c1cccc(C(F)(F)F)c1)N1CCC(CO)(Cc2cccc(C(F)(F)F)c2)CC1 | 964 nM |
| O=C(Nc1ccc(OC2CCN(Cc3ccccc3)C2)c(Cl)c1)c1ccc(F)cc1 (stereo unspecified) | 791 nM |
| Cc1cc(C(=O)NC2CCN(CC3(c4ccc(Cl)cc4)CCC3)CC2)on1 | 92 nM |
| Clc1ccc2c(N3CCN(CCN4CCN(c5ccnc6cc(Cl)ccc56)CC4)CC3)ccnc2c1 | 128 nM |
| O=C(C=Cc1ccc(Cl)c(Cl)c1)NCCCCCN1CCC(CCCNC(=O)c2sc3ccccc3c2Cl)CC1 | 398 nM |
| CCCN(CCC)C(=O)c1cc(C(=O)N[C@@H](Cc2ccccc2)[C@H](O)CNC(C)(C)c2cccc(OC)c2)cc(N2CCCCS2(=O)=O)c1 | 29.8 nM |
| CC(Cc1ccc(NC(=O)[C@H](C)NCCc2cccc(Cl)c2)cc1)NCCc1cccc(Cl)c1 (stereo partly specified) | 663 nM |
| CC1(C)N=C(N)N=C(N)N1c1ccc(Oc2ccc(Cl)cc2)c(Cl)c1 | 78.9 nM |
| CO/C(=C\C=C\c1cc2cc(Cl)c(Cl)cc2[nH]1)C(=O)NC1CCN(CCOc2ccccc2)CC1 | 611 nM |
| O=C(Nc1ccccc1)Nc1ccc(-n2ccc(C(F)(F)F)n2)cc1 | 632 nM |
| COc1cccc(CNC(=O)[C@@H]2CN(C(=O)c3ccccc3)CCN2)c1 | 1160 nM |
| Cc1nc(N/C=C/c2ccc(O)cc2)cc(N2CCCC2)n1 | 1070 nM |
